In US20040185558A1, “Method for culturing brain tissue in three dimensions” (priority 2003, published 2004):

Tested on: hippocampal tissue grown under SMC
Test: field EPSP evoked by electrical stimulation in hippocampal tissue cultured 10 days under simulated microgravity conditions
Type: cell-based, Sprauge-Dawley rats
From the text: In order to determine whether hippocampal tissue grown under SMC is able to generate electrical signals, hippocampal tissue grown under SMC for 10 days as described was electrically stimulated and field excitatory postsynaptic potential (EPSP) recorded. […] One important characteristic of the response is the presence of paired-pulse facilitation (PPF) (FIGS. 3A and 3B). PDF have been described and characterized in acute slices from the hippocampus and are an example of frequency-dependent short-term plasticity of excitatory synapses. This phenomenon is accounted for by the residual calcium hypothesis, according to which the small fraction of calcium entering the terminal during the first spike increases the probability of transmitter release to a second action potential (Zucker, 1989). […]
Sprauge-Dawley rats (7-9 days old) are quickly decapitated and the brain is rapidly removed and placed in ice-cold Gey's solution (g/L): NaCl (7), KCl (0.37), MgSO4-7H2O (0.06), MgCl2-6H2O (0.21), KH2PO4 (0.03), Na2HPO4-7H2O (0.23), Glucose (1), CaCl2-2H2O (0.23) and NaHCO3 ([…]). […] The slices will be monitored daily and rotary speed will be adjusted in order to avoid any free falling. […]

Row | Compound | effect on field EPSP (dependence on voltage gated calcium current) (perfused with 1 mM CoCl2, hippocampal tissue grown under SMC 10 days, reversible after washout) | effect on field EPSP (NMDA subtype glutamate receptor antagonist) (100 μM APV, hippocampal tissue grown under SMC, vs no antagonist)
1 | [Cl][Co][Cl] [CoCl2, cobalt chloride] | reversibly blocked | 
2 | NC(CCCP(=O)(O)O)C(=O)O (centres unmarked) [APV, amino-5-phosphonovaleric acid] |  | partially block
